Source: patent EP3858439A1 (priority 2020, dated 2021)
Where a name gives a salt, the structure may show the parent alone.

biological target: T1, human µ-opioid receptor (Homo sapiens, UniProt P35372); assay: Binding assay to human µ-opioid receptor ([3H]-DAMGO displacement); details: not given
T1 construct: expressed in transfected cells; host or cells: CHO-K1
Experimental: Binding assay to human µ-opioid receptor
Transfected CHO-K1 cell membranes (20 µg) were incubated with [^3H]-DAMGO (1 nM) in assay buffer containing Tris-HCl 50 mM, MgCl2 5 mM at pH 7.4.
Plates were incubated at 27 °C for 60 min. After the incubation period, the reaction mixture was then transferred to MultiScreen HTS, FC plates (Millipore), filtered and plates were washed 3 times with ice-cold 10 mM Tris-HCl (pH 7.4).
Filters were dried and counted at approximately 40% efficiency in a MicroBeta scintillation counter (Perkin-Elmer) using EcoScint liquid scintillation cocktail.

T1 sequence (P35372 whole entry): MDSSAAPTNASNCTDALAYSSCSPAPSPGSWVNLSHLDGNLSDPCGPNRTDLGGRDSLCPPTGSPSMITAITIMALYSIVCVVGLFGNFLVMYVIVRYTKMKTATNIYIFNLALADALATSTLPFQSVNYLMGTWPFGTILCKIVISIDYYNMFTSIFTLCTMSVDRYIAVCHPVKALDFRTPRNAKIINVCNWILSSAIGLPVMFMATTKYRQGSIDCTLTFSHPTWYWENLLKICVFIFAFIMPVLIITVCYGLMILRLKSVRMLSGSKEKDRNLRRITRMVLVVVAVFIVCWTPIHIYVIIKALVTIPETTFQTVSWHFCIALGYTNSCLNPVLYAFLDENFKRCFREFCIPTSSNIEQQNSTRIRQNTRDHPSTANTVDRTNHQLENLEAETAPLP

Row | SMILES | Ki
1 | CN(C)C1(c2ccccc2)CCN(C(=O)[C@@H](CN)[C@@H]2CCCc3ccccc32)CC1 (racemic) [Example 77, (RS)-3-Amino-1-(4-(dimethylamino)-4-phenylpiperidin-1-yl)-2-((SR)-1,2,3,4-tetrahydronaphthalen-1-yl)propan-1-one] | < 100 nM
2 | CN(C)C1(c2ccccc2)CCN(C(=O)[C@@H](CN)[C@H]2CCCc3ccccc32)CC1 (racemic) [Example 78, (RS)-3-amino-1-(4-(dimethylamino)-4-phenylpiperidin-1-yl)-2-((RS)-1,2,3,4-tetrahydronaphthalen-1-yl)propan-1-one] | < 100 nM
3 | CN(C)C1(c2ccccc2)CCN(C(=O)[C@H](CN)C(C)(C)c2ccccc2)CC1 [Example 5, (S)-2-(aminomethyl)-1-(4-(dimethylamino)-4-phenylpiperidin-1-yl)-3-methyl-3-phenylbutan-1-one] | < 100 nM
4 | CNC1(c2ccccc2)CCN(C(=O)[C@H](CN)[C@@H](C)c2ccccc2)CC1 [Example 9, (2S,3R)-2-(aminomethyl)-1-(4-(methylamino)-4-phenylpiperidin-1-yl)-3-phenylbutan-1-one] | < 100 nM
5 | CN(C)C1(c2ccccc2)CCN(C(=O)C(CN)Cc2ccccc2)CC1 (stereo not shown) [Example 28, 3-amino-2-benzyl-1-(4-(dimethylamino)-4-phenylpiperidin-1-yl)propan-1-one dihydrochloride] | < 100 nM
6 | CCNCC(Cc1ccccc1)C(=O)N1CCC(c2ccccc2)(N(C)C)CC1 (stereo not shown) [Example 30, 2-benzyl-1-(4-(dimethylamino)-4-phenylpiperidin-1-yl)-3-(ethylamino)propan-1-one dihydrochloride] | < 100 nM
7 | CNCCC(Cc1ccccc1)C(=O)N1CCC(c2ccccc2)(N(C)C)CC1 (stereo not shown) [Example 31, 2-benzyl-1-(4-(dimethylamino)-4-phenylpiperidin-1-yl)-4-(methylamino)butan-1-one dihydrochloride] | 100 to 500 nM
8 | CNCC(Cc1ccccc1)C(=O)N1CCC(c2cccc(O)c2)(N(C)C)CC1 (stereo not shown) [Example 34, 2-benzyl-1-(4-(dimethylamino)-4-(3-hydroxyphenyl)piperidin-1-yl)-3-(methylamino)propan-1-one dihydrochloride] | < 100 nM
9 | CNCC(Cc1ccccc1)C(=O)N1CCC(NC)(c2cccc(O)c2)CC1 (stereo not shown) [Example 44, 2-benzyl-1-(4-(3-hydroxyphenyl)-4-(methylamino)piperidin-1-yl)-3-(methylamino)propan-1-one dihydrochloride] | < 100 nM
10 | CNCC(Cc1cccc(F)c1)C(=O)N1CCC(c2ccccc2)(N(C)C)CC1 (stereo not shown) [Example 52, 1-(4-(dimethylamino)-4-phenylpiperidin-1-yl)-2-(3-fluorobenzyl)-3-(methylamino) propan-1-one] | < 100 nM
11 | CNCC(Cc1ccccc1C#N)C(=O)N1CCC(c2ccccc2)(N(C)C)CC1 (stereo not shown) [Example 55, 2-(3-(4-(dimethylamino)-4-phenylpiperidin-1-yl)-2-((methylamino)methyl)-3-oxopropyl)benzonitrile dihydrochloride] | 100 to 500 nM

same assay, conditions: Table 2; transfected CHO-K1 cell membranes, [3H]-DAMGO 1 nM, 60 min at 27 °C; read-out: Binding µ

Row | SMILES | Ki
12 | CNC[C@@H](C(=O)N1CCC(c2ccccc2)(N(C)C)CC1)[C@@H](C)c1ccccc1 [Example 1, (2S,3R)-1-(4-(Dimethylamino)-4-phenylpiperidin-1-yl)-2-((methylamino)methyl)-3-phenylbutan-1-one dihydrochloride] | < 100 nM
13 | CNC[C@@H](C(=O)N1CCC(c2ccc(F)cc2)(N(C)C)CC1)[C@@H](C)c1ccccc1 [Example 2, (2S,3R)-1-(4-(dimethylamino)-4-(4-fluorophenyl)piperidin-1-yl)-2-((methylamino)methyl)-3-phenylbutan-1-one] | < 100 nM
14 | CNC[C@@H](C(=O)N1CCC(c2cccc(F)c2)(N(C)C)CC1)[C@@H](C)c1ccccc1 [Example 3, (2S,3R)-1-(4-(dimethylamino)-4-(3-fluorophenyl)piperidin-1-yl)-2-((methylamino)methyl)-3-phenylbutan-1-one] | < 100 nM
15 | CNC[C@@H](C(=O)N1CCC(NC)(c2ccccc2)CC1)[C@@H](C)c1ccccc1 [Example 4, (2S,3R)-1-(4-(methylamino)-4-phenylpiperidin-1-yl)-2-((methylamino)methyl)-3-phenylbutan-1-one] | 100 to 500 nM
16 | CC[C@@H](c1ccccc1)[C@@H](CN)C(=O)N1CCC(NC)(c2ccccc2)CC1 [Example 6, (2S,3R)-2-(aminomethyl)-1-(4-(methylamino)-4-phenylpiperidin-1-yl)-3-phenylpentan-1-one dihydrochloride] | < 100 nM
17 | C[C@@H](c1ccccc1)[C@@H](CN)C(=O)N1CCC(c2ccccc2)(N(C)C)CC1 [Example 7, (2S,3R)-2-(aminomethyl)-1-(4-(dimethylamino)-4-phenylpiperidin-1-yl)-3-phenylbutan-1-one dihydrochloride] | < 100 nM
18 | CC[C@@H](c1ccccc1)[C@@H](CN)C(=O)N1CCC(c2ccccc2)(N(C)C)CC1 [Example 8, (2S,3R)-2-(aminomethyl)-1-(4-(dimethylamino)-4-phenylpiperidin-1-yl)-3-phenylpentan-1-one dihydrochloride] | < 100 nM
19 | CC[C@@H](c1ccccc1)[C@@H](CN)C(=O)N1CC(c2ccccc2)(N(C)C)C1 [Example 10, (2S,3R)-2-(aminomethyl)-1-(3-(dimethylamino)-3-phenylazetidin-1-yl)-3-phenylpentan-1-one] | > 500 nM
20 | CC[C@@H](c1cccc(F)c1)[C@@H](CN)C(=O)N1CCC(NC)(c2ccccc2)CC1 [Example 11, (2S,3R)-2-(aminomethyl)-3-(3-fluorophenyl)-1-(4-(methylamino)-4-phenylpiperidin-1-yl)pentan-1-one] | < 100 nM
21 | CNC[C@@H](C(=O)N1CCC(c2ccc(OC)cc2)(N(C)C)CC1)[C@@H](C)c1ccccc1 [Example 12, (2S,3R)-1-(4-(dimethylamino)-4-(4-methoxyphenyl)piperidin-1-yl)-2-((methylamino)methyl)-3-phenylbutan-1-one] | < 100 nM
22 | CC[C@@H](c1ccccc1)[C@@H](CNC)C(=O)N1CCC(c2ccccc2)(N(C)C)CC1 [Example 13, (2S,3R)-1-(4-(dimethylamino)-4-phenylpiperidin-1-yl)-2-((methylamino)methyl)-3-phenylpentan-1-one dihydrochloride] | < 100 nM
23 | CNC[C@@H](C(=O)N1CCC(c2ccccc2)(N(C)C)CC1)[C@@H](C)c1ccccc1F [Example 14, (2S,3R)-1-(4-(dimethylamino)-4-phenylpiperidin-1-yl)-3-(2-fluorophenyl)-2-((methylamino)methyl)butan-1-one dihydrochloride] | 100 to 500 nM
24 | CNC[C@@H](C(=O)N1CCC(c2ccccc2)(N(C)C)CC1)[C@@H](C)c1cccc(F)c1 [Example 15, (2S,3R)-1-(4-(dimethylamino)-4-phenylpiperidin-1-yl)-3-(3-fluorophenyl)-2-((methylamino)methyl)butan-1-one] | < 100 nM
25 | CNC[C@@H](C(=O)N1CCC(c2cccc(O)c2)(N(C)C)CC1)[C@@H](C)c1ccccc1 [Example 16, (2S,3R)-1-(4-(dimethylamino)-4-(3-hydroxyphenyl)piperidin-1-yl)-2-((methylamino)methyl)-3-phenylbutan-1-one dihydrochloride] | < 100 nM
26 | CC[C@@H](c1ccccc1)[C@@H](CNC)C(=O)N1CCC(NC)(c2ccccc2)CC1 [Example 17, (2S,3R)-1-(4-(methylamino)-4-phenylpiperidin-1-yl)-2-((methylamino)methyl)-3-phenylpentan-1-one dihydrochloride] | < 100 nM
27 | CC[C@@H](c1ccccc1)[C@@H](CNC)C(=O)N1CC(c2ccccc2)(N(C)C)C1 [Example 19, (2S,3R)-1-(3-(dimethylamino)-3-phenylazetidin-1-yl)-2-((methylamino)methyl)-3-phenylpentan-1-one dihydrochloride] | > 500 nM
28 | CC[C@@H](c1cccc(F)c1)[C@@H](CNC)C(=O)N1CCC(NC)(c2ccccc2)CC1 [Example 20, (2S,3R)-3-(3-fluorophenyl)-1-(4-(methylamino)-4-phenylpiperidin-1-yl)-2-((methylamino)methyl)pentan-1-one] | < 100 nM
29 | CC[C@@H](c1cccc(F)c1)[C@@H](CNC)C(=O)N1CCC(c2ccccc2)(N(C)C)CC1 [Example 21, (2S,3R)-1-(4-(dimethylamino)-4-phenylpiperidin-1-yl)-3-(3-fluorophenyl)-2-((methylamino)methyl)pentan-1-one] | < 100 nM
30 | CC[C@@H](c1ccccc1)[C@@H](CNC)C(=O)N1CCC(NC)(c2ccc(OC)cc2)CC1 [Example 22, (2S,3R)-1-(4-(4-methoxyphenyl)-4-(methylamino)piperidin-1-yl)-2-((methylamino)methyl)-3-phenylpentan-1-one dihydrochloride] | < 100 nM
31 | CN(C)C1(c2cccc(O)c2)CCN(C(=O)C2NCCc3ccccc32)CC1 (stereo not shown) [Example 35, (4-(dimethylamino)-4-(3-hydroxyphenyl)piperidin-1-yl)(1,2,3,4-tetrahydroisoquinolin-1-yl)methanone dihydrochloride] | < 100 nM
32 | CNCC(Cc1ccccc1)C(=O)N1CCC(c2cccc(OC)c2)(N(C)C)CC1 (stereo not shown) [Example 41, 2-benzyl-1-(4-(dimethylamino)-4-(3-methoxyphenyl)piperidin-1-yl)-3-(methylamino)propan-1-one dihydrochloride] | < 100 nM
33 | C[C@H](N)[C@H](Cc1ccccc1)C(=O)N1CCC(c2ccccc2)(N(C)C)CC1 [Example 48, (2S,3S)-3-amino-2-benzyl-1-(4-(dimethylamino)-4-phenylpiperidin-1-yl)butan-1-one dihydrochloride] | < 100 nM
34 | C[C@@H](N)[C@@H](Cc1ccccc1)C(=O)N1CCC(c2ccccc2)(N(C)C)CC1 [Example 49, (2R,3R)-3-amino-2-benzyl-1-(4-(dimethylamino)-4-phenylpiperidin-1-yl)butan-1-one dihydrochloride] | 100 to 500 nM
